Laboratory results reported in patent US20070184047A1, “Nitrophenyls and related compounds and thimerosal for the inhibition of immune related cell or tissue destruction” (Canadian Blood Services, priority 2005, published 2007).

Key:
[1] = test system: FcγR-mediated phagocytosis of anti-D-coated RBCs by monocyte-macrophages (Mφ); assay: Monocyte monolayer assay (MMA): inhibition of phagocytosis of anti-D-sensitized RBCs; assay type: cell-based, human; conditions: for inhibition of phagocytosis over the test concentration range: 10^−4 down to 10^−9 mol per L
Source text: The test concentration of immunoglobulin (anti-D or IVIg) was chosen after titration of each immunoglobulin on its own to inhibit FcγR and phagocytosis of anti-D-coated RBCs using a monocyte monolayer assay (MMA) as previously described in Rampersad et al., supra and Foo et al., supra. […] The two controls used in these experiments were chemical alone and immunoglobulin alone. For each experiment, the controls and a mixture of chemical and immunoglobulin in phosphate buffered saline (PBS) pH 7.4, were placed in separate tubes (Sarstedt) and gently rotated for 24 hours at room temperature. The solutions were then transferred to respective cellulose dialysis tubing membranes with a molecular size cut off of 12,000 daltons (Sigma-Aldrich) that had been cut to length and washed as per the manufacturer's directions by boiling in a solution containing one mmol/L ethylenediaminetetraacetic acid (EDTA) (BioShop) and 2% sodium bicarbonate (Fisher Scientific) in PBS. Dialysis was performed in large beakers of PBS for 5-7 days at 4° C. with daily changes of PBS.
Preparation of anti-D-sensitized R2R2 red blood cells (RBCs) has been previously described in Rampersad et al., supra and Foo et al., supra. Briefly, RBCs were resuspended in PBS to 5% concentration, mixed with an equal volume of human polyclonal anti-D (Immucor, Tex., Houston, USA) in PBS solution, and then incubated for 1 hour at 37° C. and 5% CO2. After which, the sensitized RBCs were washed four times in PBS and resuspended to 2.5% in PBS. […] The MMA was performed as previously described in Foo et al., supra, without modification.
A phagocytic index was calculated as described in Rampersad et al., supra; Foo et al., supra; and Branch et al., British Journal of Haematology, 1984; 56:19-29, as the unitless number of antibody-sensitized RBCs phagocytosed per 100 Mφ. Residual and phagocytosed RBCs were distinguished by relative differences in refracted light under phase-contrast microscopy. Percent inhibition was calculated as previously described^2 taking the phagocytic control index to be 100. […] Statistical significance of inhibition between treated and untreated Mφ were analysed using Student t-test and Analysis of Variance (ANOVA), and/or, General Linear Model (GLM) Analysis and Student-Newman-Keuls test. A p value of <0.05 was considered to be significant.
As previously described with minor modification, Rampersad et al., Transfusion, 2005; 45:384:93, an aliquot of R2R2 RBCs was removed from storage in Alsever's solution, Walker et al., American Association of Blood Banks, 11th ed., Bethesda, 1993, at 4° C. and washed three times in PBS without calcium or magnesium (Gibco/Invitrogen) at 2000 r.p.m. for 7 minutes (Sorvall RT 6000D centrifuge, Mandel Scientific Company Inc., Guelph, Ontario, Canada). The RBCs were resuspended in PBS to 5 percent concentration, mixed with an equal volume of human anti-D in PBS solution, and then incubated for 1 hour at 37° C. and 5 percent CO2 (Sanyo CO2 incubator), after which the sensitized RBCs were washed four times in PBS at 2000 r.p.m. for 7 minutes and resuspended to 2.5 percent in PBS.
As previously described with slight modification to improve the quality of the Mφ monolayer, Rampersad et al, supra, whole venous blood was drawn from donors into tubes (Vacutainer, ACD solution A, Becton Dickinson Vacutainer Systems, Franklin Lakes, N.J.) and mixed with an equal volume of PBS.

[2] = test system: immune-mediated platelet destruction (anti-platelet antibody); assay: Model of immune-mediated platelet destruction, treatment at day 2; assay type: in vivo, mice; conditions: single dose at day 2 instead of IVIg, anti-platelet antibody continued daily
Protocol: Referring now to FIGS. 4A through 4C, shown are the results using a model of immune-mediated platelet destruction wherein the anti-platelet antibody is administered on day 0 and daily thereafter. The platelet count fell abruptly after 24 hours (day 1) indicating platelets were destroyed after the antibody was recognized and bound to the platelets. […] In FIGS. 4B and 4C at day 2, instead of IVIg, two mice were administered a single dose of thimerosal or a nitrophenyl compound p-nitrophenyl methyl disulfide (G-B) (FIG. 4C).

[3] = test system: immune-mediated platelet destruction (anti-platelet antibody); assay: Model of immune-mediated platelet destruction, treatment prior to anti-platelet antibody; assay type: in vivo, mice; conditions: administered prior to anti-platelet antibody
Protocol: Referring to FIG. 5, unlike the model in FIG. 4A-4C, the treatment was administered prior to injecting the mice with the anti-platelet antibody.

PBMCs = assay: FACS annexin V-FITC/PI analysis for viable and apoptotic PBMCs; assay type: cell-based; conditions: for effect on PBMC viability or apoptosis: 10^−4 to 10^−9 mol per L, 1 hour; for necrotic cell counts: PBMCs
Source text: Fluorescence-activated cell sorting (FACS) analysis (flow cytometry) and a TACS annexin V-fluorescein isothiocyanate (FITC) apoptosis detection kit (R&D Systems, Minneapolis, Minn.) were used to determine if disulfide-containing compounds benzoylmethyl methyl disulfide and phenyl methyl disulfide exert effects on viability or apoptosis of PBMCs. Briefly, PBMCs were isolated from whole blood as previously outlined and treated with culture medium or chemical from 10^−4 to 10^−9 mol per L for 1 hour at 37° C. and 5 percent CO2. They were then washed three times in PBS and collected by centrifugation at 12,000 r.p.m. for 5 to 10 minutes before being incubated in culture medium for 2 hours. After washing the cells once in cold PBS, according to the manufacturer's instructions, cells were then incubated with annexin V-FITC incubation reagent for 15 minutes at room temperature to stain membrane exposed phosphatidylserine, indicating early programmed cell death or apoptosis. Cells were then stained with propidium iodide (PI), specific for nonviable cells, to identify late apoptotic cells. FACS was performed with two-color analysis on a flow cytometer (FACSCalibur E4795, Becton Dickinson, Mississauga, Ontario, Canada) calibrated with fluorescent beads (CaliBRITE, BD Biosciences, San Jose, Calif.) and computer software for data analyses (Cell Quest, BD Biosciences).

Compound | inhibition of phagocytosis over the test concentration range [1] | effect on loss of platelets following anti-platelet antibody [3] | inhibition of phagocytosis ([1]; 10^−4 mol per L) [%] | further results
CC(O)c1ccccc1 (stereo not shown) [1-phenylethanol, reference compound] | None of these compounds were able to inhibit phagocytosis |  |  | 
CSCc1ccc([N+](=O)[O-])cc1 [p-nitrobenzyl methyl sulfide] | did not inhibit phagocytosis |  |  | 
O=[N+]([O-])c1ccc(O)cc1 [p-nitrophenol, reference compound] | None of these compounds were able to inhibit phagocytosis |  |  | 
CSSc1ccc([N+](=O)[O-])cc1 [p-nitrophenyl methyl disulfide] | inhibited macrophage phagocytosis in vitro in a dose-dependent manner | little effect on the subsequent loss of platelets | 98.6 | platelet count after treatment [2]: the platelet count began to rise; inhibition of phagocytosis ([1]; 10^−7 mol per L): 29%
p-nitrophenylethanol | None of these compounds were able to inhibit phagocytosis | zero platelet loss |  | 
CSSc1ccccc1 [phenyl methyl disulfide] | inhibition of phagocytosis in a dose-dependent manner |  | 54 | effect on PBMC viability or apoptosis (PBMCs): do not significantly affect PBMC viability or apoptosis; necrotic cell counts (PBMCs; 10^−4 mol per L): 2.36%; necrotic cell counts (PBMCs; 10^−5 mol per L): 1.05%
O=[N+]([O-])c1ccccc1 [nitrobenzene, reference compound] | None of these compounds were able to inhibit phagocytosis |  |  | 
O=C(CS)c1ccccc1 [benzoylmethyl mercaptan] | ineffective |  |  | 
CSSCC(=O)c1ccccc1 [benzoylmethyl methyl disulfide] | inhibited phagocytosis in a dose-dependent manner |  | 62 | effect on PBMC viability or apoptosis (PBMCs): do not significantly affect PBMC viability or apoptosis
C[CH2][Hg][S]c1ccccc1C(=O)[O-].[Na+] [thimerosal] |  | little effect on the subsequent loss of platelets |  | platelet count after treatment [2]: the platelet count began to rise; inhibition of phagocytosis ([1]; used alone at 10^−3M, undialyzed): 100%; inhibition of phagocytosis after dialysis ([1]; used alone at 10^−5M or 10^−3M, after dialysis): no longer inhibits phagocytosis after dialysis; inhibition of phagocytosis ([1]; used alone at 10^−5M, undialyzed): 100%
